Measured values taken from US20120071496A1, “Aminopyrimidinamides As Pest Control Agents” (Bayer CropScience AG, priority 2009, published 2012).

tested on: not listed separately; assay: logP (HCOOH); type: physicochemical; conditions: HCOOH (formic acid); Table 6

SMILES	chromatographic logP
CCc1ncccc1C(=O)Nc1c(Cl)ncnc1Nc1ccc(C(F)(F)F)cc1 [5-5, N-(4-Chloro-6-{[4-(trifluoromethyl)phenyl]amino}pyrimidin-5-yl)-2-ethylnicotinamide]	2.12

same assay, conditions: Table 2

SMILES	logP (HCOOH)
O=C(Nc1c(NC2CC2)ncnc1-c1ccc(OC(F)(F)F)cc1)c1cccnc1OCC(F)(F)F [1-169]	2.84
O=C(Nc1c(NC2CC2)ncnc1-c1ccc(F)cc1)c1cccnc1C(F)(F)F [1-170]	1.59
O=C(Nc1c(NC2CC2)ncnc1-c1ccc(Cl)cc1)c1cccnc1C(F)(F)F [1-178]	1.76
O=C(Nc1c(NC2CC2)ncnc1-c1ccc(Cl)cc1)c1cccnc1C(F)F [1-179]	1.58
CCc1ncccc1C(=O)Nc1c(NC2CC2)ncnc1-c1ccc(F)cc1C [1-180]	1.10
CCc1ncccc1C(=O)Nc1c(NC2CC2)ncnc1-c1ccc(C#N)cc1C [1-181]	1.22
CCc1ncccc1C(=O)Nc1c(NC2CC2)ncnc1-c1ccccc1C [1-182]	0.94
CCc1ncccc1C(=O)Nc1c(NC2CC2)ncnc1-c1ccc(Cl)cc1F [1-187]	1.46
CCc1ncccc1C(=O)Nc1c(NC2CC2)ncnc1-c1ccc(Cl)cc1C [1-188]	1.40
CCc1ncccc1C(=O)Nc1c(NC2CC2)ncnc1-c1ccc(C(F)(F)F)cc1C [1-189]	1.77
CCc1nc(C(F)(F)F)ccc1C(=O)Nc1c(NC2CC2)ncnc1-c1ccc(F)cc1 [1-196]	2.43
O=C(Nc1c(NC2CC2)ncnc1-c1ccc(Cl)cc1)c1cc(Cl)cnc1C1CC1 [1-197]	2.52
O=C(Nc1c(NC2CC2)ncnc1-c1ccc(F)cc1)c1cc(Cl)cnc1C1CC1 [1-198]	2.16
Cc1nc(C(F)(F)F)ccc1C(=O)Nc1c(NC2CC2)ncnc1-c1ccc(Cl)cc1 [1-199]	2.35
CCc1ncccc1C(=O)Nc1c(NC2CCC2)ncnc1-c1ccc(F)cc1 [1-224]	1.36
CCc1ncccc1C(=O)Nc1c(NC2CC2C)ncnc1-c1ccc(Cl)cc1F (centres unmarked) [1-230]	1.72
O=C(Nc1c(NC2CC2)ncnc1-c1ccc(F)cc1)c1cccnc1C(=O)NC1CC1 [1-262]	1.45

SMILES	logP (HCOOH)
O=C(Nc1c(NC2CC2)ncnc1-c1ccc(Cl)cc1)c1c(F)cccc1Cl [1-263]	2.20
CCc1ncccc1C(=O)Nc1c(NC2CC2)ncnc1-c1ccc(Cn2cnc(C(F)(F)F)n2)cc1 [1-273]	1.11
CCc1ncccc1C(=O)Nc1c(NC2CC2)nc(C)nc1-c1ccccc1 [1-275]	0.76
CCc1ncccc1C(=O)Nc1c(NC2CC2)nc(C)nc1-c1ccc(F)cc1 [1-276]	0.88
CCc1ncccc1C(=O)Nc1c(NC2CC2)nc(C)nc1-c1ccc(Cl)cc1Cl [1-277]	1.34
CCc1ncccc1C(=O)Nc1c(NC2CC2)nc(C)nc1-c1ccc(F)cc1F [1-278]	1
CCc1ncccc1C(=O)Nc1c(NC2CC2)nc(C)nc1-c1ccc(OC(F)(F)F)cc1 [1-279]	1.44
O=C(Nc1c(NC2CC2)ncnc1-c1ccc(Cn2cnc(C(F)(F)F)n2)cc1)c1cccnc1C1CC1 [1-287]	1.45
CCc1ncccc1C(=O)Nc1c(NC2CC2)nc(SC)nc1-c1ccc(Cn2cnc(C(F)(F)C(F)(F)F)n2)cc1 [1-290]	2.47
CCc1ncccc1C(=O)Nc1c(NC(C)C(F)(F)F)ncnc1-c1ccc(F)cc1 (centres unmarked) [1-299]	1.85
O=C(Nc1c(NC2CC2)ncnc1-c1ccc(F)cc1)c1cccnc1C(F)C(F)(F)F (centres unmarked) [1-308]	1.83
CCc1ncccc1C(=O)Nc1c(NC2CC2)ncnc1-c1ccc(COc2ccc(C(F)(F)F)cn2)cc1 [1-309]	1.77
CCc1nccc(Cl)c1C(=O)Nc1c(NC2CC2)ncnc1-c1ccc(F)cc1 [1-315]	2.18
CCc1nccc(Cl)c1C(=O)Nc1c(NC2CC2)ncnc1-c1ccc(Cl)cc1 [1-316]	2.54
CCc1cccc(C)c1C(=O)Nc1c(NC2CC2)ncnc1-c1ccc(F)cc1 [1-320]	2.39
CCc1cccc(Cl)c1C(=O)Nc1c(NC2CC2)ncnc1-c1ccc(C#N)cc1 [1-321]	2.37

same assay, conditions: Table 4

SMILES	logP (HCOOH)
CCc1ncccc1C(=O)Nc1c(Br)ncnc1NC1CC1 [3-3]	0.84
O=C(Nc1c(Cl)ncnc1NC1CC1)c1cccnc1OCC(F)(F)F [3-4]	2.25
O=C(Nc1c(Cl)ncnc1NC1CC1)c1cccnc1CC(F)(F)F [3-5]	1.61
CCc1ncccc1C(=O)Nc1c(Cl)ncnc1NC1CC1C (centres unmarked) [3-7]	1.26
CCc1ncccc1C(=O)Nc1c(CC)ncnc1NC1CC1 [3-8]	1.74
CCc1ncccc1C(=O)Nc1c(Cl)nc(C)nc1NC1CC1 [3-9]	1.41

same assay, conditions: table after Table 9

SMILES	IogP (HCOOH)
O=C(Nc1c(NC2CC2)ncnc1-c1ccc(F)cc1)c1ccnn1-c1ccc(F)cc1 [9-1]	1.70
O=C(Nc1c(NC2CC2)ncnc1-c1ccc(F)cc1)c1ccnn1-c1ccc(Cl)cc1 [9-2]	2.02
O=C(Nc1c(NC2CC2)ncnc1-c1ccc(F)cc1)c1ccnn1-c1ccccc1Cl [9-3]	1.76
O=C(Nc1c(NC2CC2)ncnc1-c1ccc(Cl)cc1)c1ccnn1-c1ccccc1Cl [9-4]	2.05

tested on: Spodoptera litura third instar larvae; assay: Test against tobacco cutworm (Spodoptera litura) larvae; type: in vivo; conditions: active compound concentration 100 ppm; immersed sweet potato leaves; after 7 days
Experimental: Unless not mentioned otherwise, the test solutions were prepared as follows:
Containing as solvent: Dimethylformamide, 3 parts by weight; and as emulsifier: Polyoxyethylene alkyl phenyl ether, 1 part by weight
Test Against Tobacco Cutworm (Spodoptera litura) Larvae
Leaves of sweet potato were immersed in the test solution at the appropriate concentration, and the leaves were dried in air. The leaves were then placed in a petri dish having a diameter of 9 cm, and ten Spodoptera litura at third instar larvae were released therein. The petri dishes were placed in a temperature-controlled chamber at 25° C. After 2 days and 4 days more sweet potato leaves were added. After 7 days, the number of dead larvae was counted to calculate the insecticidal activity. An insecticidal activity of 100% means that all larvae were killed, whereas an insecticidal activity of 0% means that no larva was killed.

SMILES	insecticidal activity
CCc1ncccc1C(=O)Nc1c(NC2CC2)ncnc1-c1ccc(C(F)(C(F)(F)F)C(F)(F)F)cc1 [1-232]	100%
O=C(Nc1c(NC2CC2)ncnc1-c1ccccc1)c1cccnc1C1CC1 [1-234]	100%
O=C(Nc1c(NC2CC2)ncnc1-c1ccc(F)cc1)c1cccnc1C1CC1 [1-235]	100%
O=C(Nc1c(NC2CC2)ncnc1-c1ccc(Cl)cc1)c1cccnc1C1CC1 [1-236]	100%
CCCc1ncccc1C(=O)Nc1c(NC2CC2)ncnc1-c1ccccc1 [1-237]	100%
CCCc1ncccc1C(=O)Nc1c(NC2CC2)ncnc1-c1ccc(F)cc1 [1-238]	100%
CCCc1ncccc1C(=O)Nc1c(NC2CC2)ncnc1-c1ccc(Cl)cc1 [1-239]	100%
O=C(Nc1c(NC2CC2)ncnc1-c1ccc(F)cc1F)c1cccnc1C1CC1 [1-240]	100%
O=C(Nc1c(NC2CC2)ncnc1-c1ccc(Cl)cc1)c1cccnc1C(F)(F)C(F)(F)F [1-241]	100%
N#Cc1ccc(-c2ncnc(NC3CC3)c2NC(=O)c2cccnc2C2CC2)cc1 [1-242]	100%
O=C(Nc1c(NC2CC2)ncnc1-c1ccc(OC(F)(F)F)cc1)c1cccnc1C1CC1 [1-243]	100%
CCCc1ncccc1C(=O)Nc1c(NC2CC2)ncnc1-c1ccc(Cl)cc1Cl [1-244]	100%
CCCc1ncccc1C(=O)Nc1c(NC2CC2)ncnc1-c1ccc(F)cc1F [1-245]	100%
CCCc1ncccc1C(=O)Nc1c(NC2CC2)ncnc1-c1ccc(C#N)cc1 [1-246]	100%
CCc1ncccc1C(=O)Nc1c(NC2CC2)ncnc1-c1ccc(Cn2nc(C(F)(F)C(F)(F)F)cc2C(F)(F)F)cc1 [1-247]	100%
O=C(Nc1c(NC2CC2)ncnc1-c1ccc(Cn2nc(C(F)(F)F)cc2C(F)(F)F)cc1)c1cccnc1C1CC1 [1-252]	100%
O=C(Nc1c(NC2CC2)ncnc1-c1ccc(Cn2nc(C(F)(F)C(F)(F)F)cc2C(F)(F)F)cc1)c1cccnc1C1CC1 [1-253]	100%
CCc1ccccc1C(=O)Nc1c(NC2CC2)ncnc1-c1ccc(OC(F)(F)F)cc1 [1-257]	100%

SMILES	insecticidal activity
O=C(Nc1c(NC2CC2)ncnc1-c1ccc(Cn2nc(C(F)(F)F)nc2C(F)(F)F)cc1)c1cccnc1C1CC1 [1-259]	100%
CCc1ccccc1C(=O)Nc1c(NC2CC2)ncnc1-c1ccc(Cn2nc(C(F)(F)F)nc2C(F)(F)F)cc1 [1-265]	100%
CCc1ncccc1C(=O)Nc1c(NC2CC2)ncnc1-c1ccc(Cn2ccc(C(F)(F)C(F)(F)F)n2)cc1 [1-266]	100%
CCc1ncccc1C(=O)Nc1c(NC2CC2)ncnc1-c1ccc(Cn2ccc(C(F)(F)C(F)(F)C(F)(F)F)n2)cc1 [1-267]	100%
CCc1ncccc1C(=O)Nc1c(NC2CC2)ncnc1-c1ccc(Cn2nc(C(F)(F)F)cc2C(F)(F)F)cc1 [1-268]	100%
CCc1ncccc1C(=O)Nc1c(NC2CC2)ncnc1-c1ccc(Cn2nc(C(F)(F)C(F)(F)F)cc2C(F)(F)C(F)(F)F)cc1 [1-269]	100%
CCc1ccccc1C(=O)Nc1c(NC2CC2)ncnc1-c1ccc(Cn2cnc(C(F)(F)F)n2)cc1 [1-286]	100%
CCc1ncccc1C(=O)Nc1c(NC2CC2)ncnc1-c1ccc(Oc2ncccc2C(F)(F)F)cc1 [1-311]	100%
CCc1ncccc1C(=O)Nc1c(NC2CC2)ncnc1-c1ccc(Oc2cccc(C(F)(F)F)n2)cc1 [1-312]	100%
CCc1ncccc1C(=O)Nc1c(NC2CC2)nc(C(F)(F)F)nc1-c1ccc(F)cc1 [1-313]	100%
CCc1ncccc1C(=O)Nc1c(NC2CC2)nc(C(F)(F)F)nc1-c1ccc(F)cc1F [1-314]	100%
CCc1ncccc1C(=O)Nc1c(NC2CC2)ncnc1-c1ccc(Oc2nc(C(F)(F)F)cc(C(F)(F)C(F)(F)F)n2)cc1 [1-317]	100%
CCc1ncccc1C(=O)Nc1c(NC2CC2)ncnc1-c1ccc(Cc2nc(C(F)(F)C(F)(F)C(F)(F)F)n(C)n2)cc1 [1-318]	100%
CCc1ncccc1C(=O)Nc1c(NC2CC2)ncnc1-c1ccc(Cc2n[nH]c(C(F)(F)C(F)(F)C(F)(F)F)n2)cc1 [1-319]	100%
O=C(Nc1c(NC2CC2)nc(C(F)(F)F)nc1-c1ccc(F)cc1)c1cccnc1CC(F)(F)F [1-324]	100%
O=C(Nc1c(NC2CC2)nc(Cl)nc1-c1ccc(F)cc1)c1cccnc1CC(F)(F)F [1-325]	100%
CCc1ncccc1C(=O)Nc1c(NC2CC2)nc(Cl)nc1-c1ccc(F)cc1 [1-326]	100%
CCc1ncccc1C(=O)Nc1c(Cl)ncnc1Nc1ccc(F)cc1 [5-2]	100%
